Source: ChEMBL document CHEMBL1201862, “PubChem BioAssay data set” (2004)
Calls of active or inactive are those of the source.

Tests used:
[1] = molecular target: T1, Tyrosyl-DNA phosphodiesterase 2 (Homo sapiens, UniProt O95551); assay: potency against TDP2 phosphodiesterase activity – biochemical, epi absorbance, IC50, dose response (AID 743297)
T1 sequence (O95551 whole entry): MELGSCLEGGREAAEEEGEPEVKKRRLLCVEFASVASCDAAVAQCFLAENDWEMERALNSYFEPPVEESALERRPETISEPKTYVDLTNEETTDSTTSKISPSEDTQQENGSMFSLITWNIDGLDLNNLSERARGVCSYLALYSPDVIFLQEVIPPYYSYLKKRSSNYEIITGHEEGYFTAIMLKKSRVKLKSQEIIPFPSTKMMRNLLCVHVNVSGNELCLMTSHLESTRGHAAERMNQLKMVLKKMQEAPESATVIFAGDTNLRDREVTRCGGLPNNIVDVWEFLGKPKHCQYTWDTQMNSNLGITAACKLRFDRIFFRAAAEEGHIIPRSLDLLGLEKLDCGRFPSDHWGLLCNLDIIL

[2] = molecular target: T2, Replicative DNA helicase DnaB (Mycobacterium tuberculosis, UniProt P9WMR3); assay: DnaB intein splicing inhibitors, dose response, biochemical, cell-free fluorescence (AID 449749); type: functional
T2 sequence (P9WMR3 whole entry): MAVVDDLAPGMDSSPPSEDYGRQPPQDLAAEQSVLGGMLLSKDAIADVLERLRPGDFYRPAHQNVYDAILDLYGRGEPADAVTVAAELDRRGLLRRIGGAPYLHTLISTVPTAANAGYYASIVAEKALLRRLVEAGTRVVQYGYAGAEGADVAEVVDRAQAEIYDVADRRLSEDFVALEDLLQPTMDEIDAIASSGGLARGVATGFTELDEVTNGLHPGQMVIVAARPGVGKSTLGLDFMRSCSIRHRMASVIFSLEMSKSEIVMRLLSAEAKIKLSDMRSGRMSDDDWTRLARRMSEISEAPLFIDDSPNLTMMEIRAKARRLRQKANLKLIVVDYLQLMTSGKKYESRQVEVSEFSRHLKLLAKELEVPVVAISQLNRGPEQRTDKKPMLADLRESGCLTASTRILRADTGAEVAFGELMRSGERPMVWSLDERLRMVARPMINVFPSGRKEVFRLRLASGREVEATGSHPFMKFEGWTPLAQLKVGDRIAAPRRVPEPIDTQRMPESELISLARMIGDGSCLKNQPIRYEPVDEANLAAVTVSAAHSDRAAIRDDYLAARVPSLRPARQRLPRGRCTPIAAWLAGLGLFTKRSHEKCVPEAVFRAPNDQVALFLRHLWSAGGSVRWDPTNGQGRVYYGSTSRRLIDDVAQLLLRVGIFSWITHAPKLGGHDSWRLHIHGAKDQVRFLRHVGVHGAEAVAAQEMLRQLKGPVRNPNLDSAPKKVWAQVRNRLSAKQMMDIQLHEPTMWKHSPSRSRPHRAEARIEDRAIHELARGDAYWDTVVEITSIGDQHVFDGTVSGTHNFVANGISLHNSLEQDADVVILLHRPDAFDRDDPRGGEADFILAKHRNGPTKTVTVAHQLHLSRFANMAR

Protein RecA = molecular target: T3, Protein RecA (Mycobacterium tuberculosis, UniProt P9WHJ3); assay: Fluorescence Cell-Free Homogeneous Dose Retest to Identify Inhibitors of RecA-Intein Splicing Activity. [Related pubchem assays (depositor defined):AID2097, AID2223, AID489010, AID492950]; type: functional
T3 sequence (P9WHJ3 whole entry): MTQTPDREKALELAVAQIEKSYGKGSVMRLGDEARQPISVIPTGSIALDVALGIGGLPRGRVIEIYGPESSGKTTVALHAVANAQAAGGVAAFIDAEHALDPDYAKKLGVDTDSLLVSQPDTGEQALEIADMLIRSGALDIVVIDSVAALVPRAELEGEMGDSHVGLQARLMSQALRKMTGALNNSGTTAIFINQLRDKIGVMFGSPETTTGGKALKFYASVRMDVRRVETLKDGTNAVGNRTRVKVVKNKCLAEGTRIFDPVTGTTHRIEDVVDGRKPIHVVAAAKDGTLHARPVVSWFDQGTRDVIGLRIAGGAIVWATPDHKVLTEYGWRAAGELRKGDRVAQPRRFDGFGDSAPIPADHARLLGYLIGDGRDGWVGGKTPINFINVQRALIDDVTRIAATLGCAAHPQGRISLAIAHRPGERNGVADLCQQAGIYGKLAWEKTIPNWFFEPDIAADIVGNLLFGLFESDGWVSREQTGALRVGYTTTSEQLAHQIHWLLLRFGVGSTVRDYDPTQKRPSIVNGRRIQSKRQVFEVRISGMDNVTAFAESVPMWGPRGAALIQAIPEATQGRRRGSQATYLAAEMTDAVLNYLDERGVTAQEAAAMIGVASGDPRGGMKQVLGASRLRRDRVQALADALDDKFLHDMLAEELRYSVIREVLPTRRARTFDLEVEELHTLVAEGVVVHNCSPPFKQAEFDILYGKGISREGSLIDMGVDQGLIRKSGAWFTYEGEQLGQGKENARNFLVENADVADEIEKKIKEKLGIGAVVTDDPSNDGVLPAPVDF

SMILES	IC50 [1]	AC50 [2]	EC50 (Protein RecA)
CC(C)=CCC1=C(OCC(=O)O)C(=O)c2ccccc2C1=O	23.6 µM (inactive)	9.19 µM (active)	7.75 µM (active)
Cc1cccc(NC2=C(NC(=O)c3ccccc3)C(=O)c3ccccc3C2=O)c1	–	3.96 µM (active)	1.71 µM (active)
Cc1[nH][nH]c(=O)c1C(c1c(C)[nH][nH]c1=O)c1cn(Cc2ccccc2Cl)c2ccccc12	54.2 µM (inactive)	0.242 µM (active)	0.299 µM (active)
